System: restraint stress-loaded ddY male mice
Test: Test on inhibition of reduction in blood testosterone concentration (restraint stress-loaded mice)
Type: in vivo
Settings: tested likewise, dose of the components not given
Experimental: The Codonopsis lanceolata extract obtained in Example 1 was used to investigate inhibitory effect on reduction in blood testosterone concentration caused by aging and stress according to the following procedures: seven-month-old ddY male mice (10 mice per group) were orally given 1 g/kg of the test substance once a day over 2 weeks. On the last administration day, the mice were loaded with restraint stress after 1 hour of test substance administration. The restraint stress loading was performed by wrapping soft wire nets around the mouse bodies and allowing the mice to abstain from food and drink for 16 hours (17:00 to 9:00). Immediately after the termination of the loading, their blood testosterone concentrations were measured. A significant difference test used was the Student's t-test.

## CC1OC(OC2C(OC(=O)[C@]34CCC(C)(C)C[C@@]3(C)C3=CCC5[C@@]6(C)CC[C@H](OC7OC(C(=O)O)C(O)C(O)C7O)C(C)(C)C6CC[C@@]5(C)[C@]3(C)C[C@H]4O)OCC(O)C2O)C(O)C(O)C1OC1OCC(O)C(OC2OCC(O)C(O)C2O)C1O (some centres unmarked) [lancemaside-A]
  inhibitory effect on reduction in blood testosterone concentration (isolated components): the inhibitory effect was also observed

## tangshenoside I
  inhibitory effect on reduction in blood testosterone concentration (isolated components): the inhibitory effect was also observed

— US20080274213A1, “Drug for Ameliorating Male Climacteric Disorders” (WAKUNAGA PHARMACEUTICAL CO., LTD., priority 2004, published 2008)
